# In PubChem BioAssay (NCI):
#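 GI50 = concentration required for 50% inhibition of growth. At the TGI there is no net growth.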
# What was measured:
# Assay in all cases: NCI anticancer screen, dose series, 384-well format
# HCT-15 colon = tested on: HCT-15 colon
# 786-0 renal = tested on: 786-0 renal
# TK-10 renal = tested on: TK-10 renal
# MDA-MB-435 melanoma = tested on: MDA-MB-435 melanoma
# HOP-62 NSCLC = tested on: HOP-62 NSCLC
# SF-295 CNS = tested on: SF-295 CNS
# M14 melanoma = tested on: M14 melanoma
# OVCAR-5 ovarian = tested on: OVCAR-5 ovarian
# RXF 393 renal = tested on: RXF 393 renal
# U251 glioblastoma = tested on: U251 glioblastoma
# LOX IMVI melanoma = tested on: LOX IMVI melanoma
# NCI-H322M lung = tested on: NCI-H322M lung
# HCT-116 colon = tested on: HCT-116 colon
# NCI-H460 NSCLC = tested on: NCI-H460 NSCLC
# EKVX NSCLC = tested on: EKVX NSCLC
# HT29 colon = tested on: HT29 colon
# HOP-92 NSCLC = tested on: HOP-92 NSCLC
# PC-3 prostate = tested on: PC-3 prostate
# SF-539 CNS = tested on: SF-539 CNS
# MOLT-4 leukemia = tested on: MOLT-4 leukemia
# OVCAR-8 ovarian = tested on: OVCAR-8 ovarian
# MDA-MB-231 breast = tested on: MDA-MB-231 breast
# UO-31 renal = tested on: UO-31 renal
# RPMI-8226 leukemia = tested on: RPMI-8226 leukemia
# NCI-H226 lung = tested on: NCI-H226 lung
# CCRF-CEM leukemia = tested on: CCRF-CEM leukemia
# HCC-2998 colon = tested on: HCC-2998 colon
# HS 578T breast = tested on: HS 578T breast
# SK-OV-3 ovarian = tested on: SK-OV-3 ovarian
# KM12 colon = tested on: KM12 colon
# SR leukemia = tested on: SR leukemia
# SF-268 CNS = tested on: SF-268 CNS
# MALME-3M melanoma = tested on: MALME-3M melanoma
# NCI/ADR-RES ovarian = tested on: NCI/ADR-RES ovarian
# UACC-257 melanoma = tested on: UACC-257 melanoma
# COLO 205 colon = tested on: COLO 205 colon
# NCI-H522 lung = tested on: NCI-H522 lung
# DU-145 prostate = tested on: DU-145 prostate
# T-47D breast = tested on: T-47D breast
# HL-60(TB) leukemia = tested on: HL-60(TB) leukemia
# A498 renal = tested on: A498 renal
# SN12C renal = tested on: SN12C renal
# SK-MEL-5 melanoma = tested on: SK-MEL-5 melanoma
# SW-620 colon = tested on: SW-620 colon
# SK-MEL-28 melanoma = tested on: SK-MEL-28 melanoma
# K-562 leukemia = tested on: K-562 leukemia
# MCF7 breast = tested on: MCF7 breast
structure (smiles),measurement,setting,value
COC(=O)c1ccc2c(C(=Nc3ccc(N(C)C(=O)CN4CCN(C)CC4)cc3)c3ccccc3)c(O)[nH]c2c1,GI50,HCT-15 colon,1760 nM
same,TGI,HCT-15 colon,3330 nM
same,GI50,786-0 renal,1400 nM
same,TGI,786-0 renal,2790 nM
same,GI50,TK-10 renal,1830 nM
same,TGI,TK-10 renal,3820 nM
same,GI50,MDA-MB-435 melanoma,1860 nM
same,TGI,MDA-MB-435 melanoma,3330 nM
same,GI50,HOP-62 NSCLC,1610 nM
same,TGI,HOP-62 NSCLC,3240 nM
same,GI50,SF-295 CNS,1830 nM
same,TGI,SF-295 CNS,3250 nM
same,GI50,M14 melanoma,1870 nM
same,TGI,M14 melanoma,3290 nM
same,GI50,OVCAR-5 ovarian,1300 nM
same,TGI,OVCAR-5 ovarian,2690 nM
same,GI50,RXF 393 renal,1110 nM
same,TGI,RXF 393 renal,2580 nM
same,GI50,U251 glioblastoma,1460 nM
same,TGI,U251 glioblastoma,2860 nM
same,GI50,LOX IMVI melanoma,2230 nM
same,TGI,LOX IMVI melanoma,3690 nM
same,GI50,NCI-H322M lung,1410 nM
same,TGI,NCI-H322M lung,3360 nM
same,GI50,HCT-116 colon,1400 nM
same,TGI,HCT-116 colon,2720 nM
same,GI50,NCI-H460 NSCLC,1870 nM
same,TGI,NCI-H460 NSCLC,3300 nM
same,GI50,EKVX NSCLC,2000 nM
same,TGI,EKVX NSCLC,3650 nM
same,GI50,HT29 colon,1230 nM
same,TGI,HT29 colon,2510 nM
same,GI50,HOP-92 NSCLC,950 nM
same,TGI,HOP-92 NSCLC,2600 nM
same,GI50,PC-3 prostate,2660 nM
same,TGI,PC-3 prostate,10300 nM
same,GI50,SF-539 CNS,545 nM
same,TGI,SF-539 CNS,1910 nM
same,GI50,MOLT-4 leukemia,730 nM
same,TGI,MOLT-4 leukemia,2090 nM
same,GI50,OVCAR-8 ovarian,1580 nM
same,TGI,OVCAR-8 ovarian,2970 nM
same,GI50,MDA-MB-231 breast,1720 nM
same,TGI,MDA-MB-231 breast,3130 nM
same,GI50,UO-31 renal,1400 nM
same,TGI,UO-31 renal,2930 nM
same,GI50,RPMI-8226 leukemia,1340 nM
same,TGI,RPMI-8226 leukemia,2620 nM
same,GI50,NCI-H226 lung,812 nM
same,TGI,NCI-H226 lung,2190 nM
same,GI50,CCRF-CEM leukemia,1710 nM
same,TGI,CCRF-CEM leukemia,3090 nM
same,GI50,HCC-2998 colon,1580 nM
same,TGI,HCC-2998 colon,2960 nM
same,GI50,HS 578T breast,1280 nM
same,TGI,HS 578T breast,2820 nM
same,GI50,SK-OV-3 ovarian,1340 nM
same,TGI,SK-OV-3 ovarian,2780 nM
same,GI50,KM12 colon,47.5 nM
same,TGI,KM12 colon,1330 nM
same,GI50,SR leukemia,734 nM
same,TGI,SR leukemia,2020 nM
same,GI50,SF-268 CNS,1560 nM
same,TGI,SF-268 CNS,3100 nM
same,GI50,MALME-3M melanoma,1460 nM
same,TGI,MALME-3M melanoma,2780 nM
same,GI50,NCI/ADR-RES ovarian,14600 nM
same,TGI,NCI/ADR-RES ovarian,> 100000 nM
same,GI50,UACC-257 melanoma,1330 nM
same,TGI,UACC-257 melanoma,2610 nM
same,GI50,COLO 205 colon,1750 nM
same,TGI,COLO 205 colon,3140 nM
same,GI50,NCI-H522 lung,750 nM
same,TGI,NCI-H522 lung,2040 nM
same,GI50,DU-145 prostate,1790 nM
same,TGI,DU-145 prostate,3340 nM
same,GI50,T-47D breast,1370 nM
same,TGI,T-47D breast,2720 nM
same,GI50,HL-60(TB) leukemia,2040 nM
same,TGI,HL-60(TB) leukemia,3470 nM
same,GI50,A498 renal,1640 nM
same,TGI,A498 renal,3070 nM
same,GI50,SN12C renal,1110 nM
same,TGI,SN12C renal,2350 nM
same,GI50,SK-MEL-5 melanoma,2190 nM
same,TGI,SK-MEL-5 melanoma,3640 nM
same,GI50,SW-620 colon,1820 nM
same,TGI,SW-620 colon,3250 nM
same,GI50,SK-MEL-28 melanoma,1690 nM
same,TGI,SK-MEL-28 melanoma,3080 nM
same,GI50,K-562 leukemia,137 nM
same,TGI,K-562 leukemia,286 nM
same,GI50,MCF7 breast,1320 nM
same,TGI,MCF7 breast,2760 nM
